{"source": "paper PMC5434977", "about": "(Analytical chemistry, 2016)", "key": {"hsMTAP [1]": {"biological_target": "T1, hsMTAP (Homo sapiens, UniProt Q13126)", "T1 sequence (Q13126 1-283)": "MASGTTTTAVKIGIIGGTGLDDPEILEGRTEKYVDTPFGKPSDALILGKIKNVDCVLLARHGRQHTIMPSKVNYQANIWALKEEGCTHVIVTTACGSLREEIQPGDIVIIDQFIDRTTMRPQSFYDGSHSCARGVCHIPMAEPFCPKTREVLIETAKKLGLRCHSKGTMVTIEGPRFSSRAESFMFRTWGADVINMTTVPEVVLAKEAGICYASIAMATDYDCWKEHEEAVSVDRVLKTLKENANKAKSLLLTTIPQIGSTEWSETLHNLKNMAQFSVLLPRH", "experiment": "Ki* by 2AMTA fluorescence-based assay, Morrison fit, hsMTAP", "format": "biochemical", "conditions": "read-out: Ki∗ measured, 1–3 mM 2AMTA as substrate, slow-onset tight-binding, Morrison equation"}, "hpMTAN [2]": {"biological_target": "T2, hpMTAN (Helicobacter pylori, UniProt Q9ZMY2)", "T2 sequence (Q9ZMY2 1-230)": "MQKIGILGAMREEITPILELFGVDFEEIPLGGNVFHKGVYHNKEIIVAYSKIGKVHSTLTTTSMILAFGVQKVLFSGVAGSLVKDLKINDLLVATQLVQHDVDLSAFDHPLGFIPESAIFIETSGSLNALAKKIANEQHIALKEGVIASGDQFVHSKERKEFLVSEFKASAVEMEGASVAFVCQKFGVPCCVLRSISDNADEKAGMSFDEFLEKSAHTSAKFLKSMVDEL", "experiment": "Ki* by 2AMTA fluorescence-based assay, Morrison fit, hpMTAN", "format": "biochemical", "conditions": "read-out: Ki∗ measured, 1–3 mM 2AMTA as substrate, slow-onset tight-binding, Morrison equation"}, "hsMTAP [3]": {"biological_target": "T1, hsMTAP", "conditions": "read-out: Ki∗ literature, ref [21],[22]; cited from earlier work"}, "hpMTAN [4]": {"biological_target": "T2, hpMTAN", "conditions": "read-out: Ki∗ literature, ref [21],[22]; cited from earlier work"}, "[5]": {"system": "Saccharomyces cerevisiae adenine phosphoribosyltransferase (scAPRTase)", "experiment": "2,6-diaminopurine fluorescence assay of scAPRTase", "format": "biochemical", "conditions": "1 mM PRPP"}, "hsMTAP [6]": {"biological_target": "T1, hsMTAP", "conditions": "substrate MTA, ref [20],[28],[29]; cited from earlier work"}, "hpMTAN [7]": {"biological_target": "T2, hpMTAN", "conditions": "substrate MTA, ref [20],[28],[29]; cited from earlier work"}, "ecMTAN": {"system": "ecMTAN", "conditions": "substrate MTA, ref [20],[28],[29]; cited from earlier work"}, "Human MTAP": {"biological_target": "T3, Human MTAP (Homo sapiens, UniProt Q13126)", "T3 sequence (Q13126 1-283)": "T1 sequence (Q13126 1-283)", "experiment": "2AMTA continuous fluorescence kinetic assay with hsMTAP", "format": "biochemical"}, "Helicobacter pylori MTAN": {"biological_target": "Helicobacter pylori MTAN (Helicobacter pylori, UniProt Q9ZMY2)", "experiment": "2AMTA continuous fluorescence kinetic assay with hpMTAN", "format": "biochemical"}, "Yersinia pestis MTAN": {"system": "Yersinia pestis MTAN", "format": "biochemical"}, "[8]": {"system": "Streptococcus pneumoniae MTAN", "format": "biochemical"}, "Vibrio cholerae MTAN": {"biological_target": "Vibrio cholerae MTAN (Vibrio cholerae serotype O1, UniProt Q9KPI8)", "sequence (Q9KPI8 whole entry)": "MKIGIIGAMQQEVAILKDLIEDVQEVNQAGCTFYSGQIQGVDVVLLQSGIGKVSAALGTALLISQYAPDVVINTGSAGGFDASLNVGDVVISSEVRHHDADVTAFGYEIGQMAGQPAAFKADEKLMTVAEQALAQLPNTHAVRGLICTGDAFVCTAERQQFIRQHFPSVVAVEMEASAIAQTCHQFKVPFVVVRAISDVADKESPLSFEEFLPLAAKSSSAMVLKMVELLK", "format": "biochemical", "conditions": "enzyme concentration 1 μM, substrate concentration 1 mM"}, "hsMTAP [9]": {"biological_target": "T1, hsMTAP", "experiment": "MTAP pre-steady-state stopped-flow kinetics", "conditions": "10 μM 2AMTA, 5 μM MTAP"}, "[10]": {"conditions": "substrate 2AMTA, 100 mM potassium phosphate pH 7.4"}}, "note": "Read-outs that look alike come from different tables or passages of the source."}
{"compound": "Nc1ncnc2c(CN3CC(CSc4ccc(Cl)cc4)[C@H](O)C3)c[nH]c12", "note": "(stereo partly drawn) [pCl-PhT-DADMe-ImmA, pCl-PhT-DADMe-Immucillin-A]", "values": [{"measurement": "Ki", "setting": "hsMTAP [1]", "result": "0.047 ± 0.013", "unit": "nM"}, {"measurement": "Ki", "setting": "hpMTAN [2]", "result": "0.36 ± 0.032", "unit": "nM"}, {"measurement": "Ki", "setting": "hsMTAP [3]", "result": "0.01 ± 0.005", "unit": "nM"}, {"measurement": "Ki", "setting": "hpMTAN [4]", "result": "0.57 ± 0.09", "unit": "nM"}]}
{"compound": "Nc1nc(N)c2[nH]cnc2n1", "note": "[2,6-diaminopurine]", "values": [{"measurement": "fold decreased kcat compared to adenine", "setting": "[5]", "result": "~400", "unit": "fold"}, {"measurement": "fold increased KM compared to adenine", "setting": "[5]", "result": "approximately 2 fold"}, {"measurement": "kcat/KM reduced by a factor compared to adenine", "setting": "[5]", "result": 800, "unit": "fold"}]}
{"compound": "5′-methylthioadenosine [MTA]", "values": [{"measurement": "Km", "setting": "hsMTAP [6]", "result": "5 ± 1", "unit": "µM"}, {"measurement": "kcat", "setting": "hsMTAP [6]", "result": "2.5 ± 0.7", "unit": "s⁻¹"}, {"measurement": "Km", "setting": "hpMTAN [7]", "result": "0.6 ± 0.3", "unit": "µM"}, {"measurement": "kcat", "setting": "hpMTAN [7]", "result": "12.1 ± 2.3", "unit": "s⁻¹"}, {"measurement": "Km", "setting": "ecMTAN", "result": "0.19 ± 0.02", "unit": "µM"}, {"measurement": "kcat", "setting": "ecMTAN", "result": "2.3 ± 0.1", "unit": "s⁻¹"}]}
{"compound": "CSC[C@H]1CN(Cc2c[nH]c3c(N)ncnc23)C[C@@H]1O", "note": "[MT-DADMe-ImmA, Methylthio-DADMe-Immucillin-A]", "values": [{"measurement": "Ki", "setting": "hsMTAP [1]", "result": "0.063 ± 0.01", "unit": "nM"}, {"measurement": "Ki", "setting": "hpMTAN [2]", "result": "0.015 ± 0.0014", "unit": "nM"}, {"measurement": "Ki", "setting": "hsMTAP [3]", "result": "0.09 ± 0.01", "unit": "nM"}, {"measurement": "Ki", "setting": "hpMTAN [4]", "result": "0.089 ± 0.019", "unit": "nM"}]}
{"compound": "2-amino-5′-methylthioadenosine [2AMTA]", "values": [{"measurement": "decrease of catalytic efficiency (kcat/KM) with 2AMTA relative to MTA", "setting": "Human MTAP", "result": "~10", "unit": "fold"}, {"measurement": "Km", "setting": "Human MTAP; [10]", "result": "34 ± 7", "unit": "µM"}, {"measurement": "kcat", "setting": "Human MTAP; [10]", "result": "1.7 ± 0.2", "unit": "s⁻¹"}, {"measurement": "decrease of catalytic efficiency (kcat/KM) with 2AMTA relative to MTA", "setting": "Helicobacter pylori MTAN", "result": "~10", "unit": "fold"}, {"measurement": "Km", "setting": "Helicobacter pylori MTAN; [10]", "result": "3.1 ± 0.5", "unit": "µM"}, {"measurement": "kcat", "setting": "Helicobacter pylori MTAN; [10]", "result": "7.0 ± 0.4", "unit": "s⁻¹"}, {"measurement": "Km", "setting": "Yersinia pestis MTAN", "result": "11 ± 4.4", "unit": "µM"}, {"measurement": "kcat", "setting": "Yersinia pestis MTAN; substrate 2AMTA, Yersinia pestis MTAN", "result": "1.1 ± 0.28", "unit": "s⁻¹"}, {"measurement": "hydrolysis of 2AMTA", "setting": "[8]; enzyme concentration 1 μM, substrate concentration 1 mM", "result": "unable to hydrolyze 2AMTA at significant rates"}, {"measurement": "kcat", "setting": "[8]; substrate 2AMTA, Streptococcus pneumoniae MTAN, 1 μM enzyme, 1 mM 2AMTA", "result": "<10^−5 s^−1"}, {"measurement": "hydrolysis of 2AMTA", "setting": "Vibrio cholerae MTAN", "result": "unable to hydrolyze 2AMTA at significant rates"}, {"measurement": "apparent turnover rate (pre-steady-state)", "setting": "hsMTAP [9]", "result": "270 ± 1", "unit": "s⁻¹"}]}
{"compound": "CSCC1NC(c2c[nH]c3c(N)ncnc23)[C@@H](O)[C@H]1O", "note": "(stereo partly drawn) [MT-ImmA, Methylthio-Immucillin-A]", "values": [{"measurement": "Ki", "setting": "hsMTAP [1]", "result": "0.33 ± 0.068", "unit": "nM"}, {"measurement": "Ki", "setting": "hpMTAN [2]", "result": "0.066 ± 0.011", "unit": "nM"}, {"measurement": "Ki", "setting": "hsMTAP [3]", "result": "1 ± 0.5", "unit": "nM"}, {"measurement": "Ki", "setting": "hpMTAN [4]", "result": "0.04 ± 0.02", "unit": "nM"}]}
